# In patent EP0385936A1, “Peptide lactone and derivatives thereof, process for their production and means for carrying out the process” (CIBA-GEIGY AG, priority 1989, dated 1990):
# Legend:
# [1] = test system: Streptomyces griseoflavus (Tü 1306); test: Increase of tirandamycin production in fermentation broth; type: cell-based
# Method: (§1) Hormaomycin bewirkt bereits in einer Konzentration ab etwa 0,05 µg/ml bei einigen Streptomyceten-Stämmen eine Erhöhung der Bildung von Antibiotika.
# [2] = Solubility in solvents (qualitative); type: physicochemical
# Description: Hormaomycin ist neutral, löst sich gut in Methanol, Chloroform, Aceton und Essigsäureethylester und ist in Wasser oder Hexan unlöslich. Auf Dünnschichtchromatographie-Platten löscht es UV-Licht (254 nm), färbt sich beim Stehen an der Luft langsam gelb und lässt sich nach Barrollier (blaugrün) und mit Ehrlich's Reagenz (blass violett), nicht jedoch mit Ninhydrin anfärben.
# [3] = test system: einigen Streptomyceten-Stämmen; test: Increase of antibiotic formation in Streptomyces strains; type: cell-based; settings: lowest effective concentration; read-out: Konzentration, ab der eine Erhöhung der Bildung von Antibiotika bewirkt wird
# Method: as §1
# [4] = test system: durch anti-CD 3 monoklonale Antikörper induzierten T-Zell-Proliferation in menschlichem Blut; test: Inhibition of T-cell proliferation induced by anti-CD 3 monoclonal antibodies in human blood (3H-thymidine); type: cell-based, menschlich; settings: 50 ng/ml anti-CD 3 antibody, 48 h + 16 h 3H-thymidine, read-out: IC₅₀
# Method: Hemmung der durch anti-CD 3 monoklonale Antikörper induzierten T-Zell-Proliferation in menschlichem Blut
# Venöses menschliches Blut wird mit 10 Einheiten Heparin pro ml versetzt und im Verhältnis 1:6 (v:v) mit RPMI 1640 Medium (Gibco) verdünnt. Nach Zugabe von 50 ng/ml anti-CD 3 monoklonalen Antikörpern (TR 66, IgG1K) werden pro Loch 150 µl verdünntes Blut in eine Lochtiterplatte mit 96 Löchern eingefüllt. Dann werden pro Loch 50 µl einer Verbindung der Formeln I oder III in dem obengenannten RPMI Medium hinzugefügt. Als Referenzverbindungen verwendet man Cyclosporin A (CSA, Sandoz, Basel, Schweiz) oder Prednisolon.
# Nach 48 Stunden bei 37°C und einem Gehalt von 7 Volumenprozent CO₂ in der Luft fügt man pro Loch 1.0 µCi ³H-Thymidin in 10 µl RPMI Medium (Amersham: spezifische Aktivität 5 Ci/mMol).
# Nach weiteren 16 Stunden werden die Zellen mit einer 96-Loch-Erntemaschine (LKB, Bromma, Schweden) auf Glasfiberfiltern (LKB) geerntet. Nach dem Trocknen der Filter wird ihre Radioaktivität gemessen (Optiscint[LKB], Betaplatten-Scintillations-Zähler [LKB]). Die Ergebnisse werden als Durchschnittswerte der für jedes Loch bei drei verschiedenen Konzentrationen in An- und Abwesenheit der Prüfsubstanzen ermittelten cpm (counts pro Minute) ausgedrückt und die Wirkung der Substanzen wird als prozentuale Hemmung angegeben, welche folgendermassen definiert ist: [formula] […]
# [5] = test system: durch Interleukin-2 induzierten T-Zell-Proliferation in menschlichem Blut; test: Inhibition of T-cell proliferation induced by interleukin-2 in human blood (3H-thymidine); type: cell-based, menschlich; settings: 100 Einheiten/ml recombinant interleukin-2, read-out: IC₅₀
# [6] = test system: Streptomyces griseoflavus (DSM 5195); test: Induction of aerial mycelium on test plates (paper disc on agar); type: cell-based; settings: 1 µg in a paper disc on agar on which no aerial mycelium develops
# Description: Hormaomycin induziert die Luftmycelbildung von Streptomyces griseoflavus (DSM 5195) und von weiteren Streptomyces-Stämmen. […] Zusätzlich induziert die Substanz die Antibiotikaproduktion in diesen Stämmen.
# [7] = test system: Brevibacterium linens ATCC 9172; test: Agar dilution series test, minimal inhibitory concentration; type: cell-based; settings: ATCC9172, in vitro, read-out: Minimale Hemmkonzentration
# Method: (§2) Hormaomycin zeigt in vitro in einem Agar-Verdünnungsreihentest eine antimikrobielle Wirkung gegen einige Bakterien, z.B. Arthrobacter crystallopoites, Arthrobacter oxydans, Corynebacterium species, Brevibacterium linens und Salmonella typhimurium. Die minimale Hemmkonzentration liegt im Bereich zwischen 0,0001 und 50 µg/ml. Die nachfolgende Tabelle offenbart einige spezifische Beispiele: […]
# [8] = test system: Corynebacterium sp. ATCC 23830; test: as above; type: cell-based; settings: ATCC23830, in vitro, read-out: Minimale Hemmkonzentration
# Method: as §2
# [9] = test system: Arthrobacter oxydans ATCC 14358; test: as above; type: cell-based; settings: Pseudarthrobacter oxydans, ATCC14358, in vitro, read-out: Minimale Hemmkonzentration
# Method: as §2
# [10] = test system: Salmonella typhimurium ATCC 13311; test: as above; type: cell-based; settings: Salmonella enterica, in vitro, read-out: Minimale Hemmkonzentration
# Method: as §2
# [11] = test system: Arthrobacter crystallopoietes ATCC 15481; test: as above; type: cell-based; settings: Crystallibacter crystallopoietes, ATCC15481, in vitro, read-out: Minimale Hemmkonzentration
# Method: as §2
smiles,measurement,setting,value
C/C=C\C1CC2C(=O)OC(C)C(NC(=O)C(CC3CC3[N+](=O)[O-])NC(=O)c3ccc(Cl)n3O)C(=O)NC(C(C)c3ccccc3)C(=O)NC(CC3CC3[N+](=O)[O-])C(=O)NC(C(C)c3ccccc3)C(=O)NC(C(C)CC)C(=O)N2C1 (stereo not shown) [Hormaomycin],Produktion des Antibiotikums Tirandamycin,"[1]; Hormaomycin 0,05 µg/ml added to fermentation broth",Verdoppelung
same,Produktion des Antibiotikums Tirandamycin,[1]; Hormaomycin 1 µg/ml added to fermentation broth,ungefähre Vervierfachung
same,Löslichkeit,"[2]; in Methanol, Chloroform, Aceton und Essigsäureethylester",löst sich gut
same,Löslichkeit,[2]; in Wasser oder Hexan,unlöslich
same,minimal effective concentration,[3],~0.05 µg/mL
same,IC50,[4],1.5 to 15 µM
same,IC50,[5],4 to 40 µM
same,Luftmycelbildung,[6],reichliche Luftmycelbildung
same,MIC,[7],10 µg/mL
same,MIC,[8],0.1 µg/mL
same,MIC,[9],0.0005 µg/mL
same,MIC,[10],50 µg/mL
same,MIC,[11],0.0001 µg/mL
